Here are results for six molecules from patent US11458153B2, “Drug delivery composition comprising a self-assembled gelator” (The Brigham and Women's Hospital, Inc., priority 2008, dated 2022).

Series [1] deals with mesenchymal stem cells (MSCs). In words: MSC osteogenic differentiation, alkaline phosphatase staining. Type of series: cell-based, human. The following applies: 250 μM, 23 days. How it is done: (§1) Unlike typical fibroblast cell lines used for toxicity screening, cultured mesenchymal stem cells are highly sensitive to the presence of soluble factors and can often loose their capacity for multi-lineage differentiation or differentiate into non-desired lineages depending on the culture conditions. To examine the impact of the acetaminophen amphiphilic prodrugs on multi-lineage differentiation of MSCs, cells were treated with adipogenic and osteogenic induction media in presence of amphiphiles followed by respective colorimetric histological staining.
Osteogenic Differentiation. MSCs were seeded in the wells of 24 well plates, and were culture in MSC expansion media until they reach 90% confluence (note: in control samples there was no amphiphile present, whereas in experimental samples 250 μM of Apn-based amphiphile was present). Osteogenic differentiation was induced by culturing the cells for 23 days in osteogenic induction media (from Lonza—MSCs Osteogenic Single Quote kit) containing dexamethasone, β-glycerophosphate, L-ascorbic acid-2-phosphate, and α-MEM. The media in both groups was changed every 3 days (note: each time while changing the media, 250 μM of Apn-based amphiphiles were added to maintain constant concentration). Osteogenesis was evaluated by cell membrane associated alkaline phosphatase activity. Alkaline phosphatase activity was examined after 23 days by carefully aspirating the media and washing the cells with PBS. The cells were fixed with 3.7% formaldehyde solution for 15 min at room temperature followed by rinsing with distilled water. 0.06% Red Violet LB salt solution in Tris HCl was added with distilled water containing DMF and Naphthol AS MX-PO4. The plates were incubated for 45 minutes at room temperature and then the wells were rinsed 3 times with distilled water and imaged under with inverted phase contrast microscope.

Series [2] relates to mesenchymal stem cells (MSCs). In words: MSC adipogenic differentiation, Oil Red O staining. The series is classed as cell-based, human. The note with it: 250 μM, 23 days of induction. How it is done: as §1
Adipogenic Differentiation. MSCs were seeded in the wells of 24 well plates, and were culture in MSC expansion media until they reach 90% confluence (note: in control samples there was no amphiphile present, whereas in experimental samples 250 μM of Apn-based amphiphile was present). Adipogenic differentiation was induced by culturing the cells for 23 days in adipogenic induction media (from Lonza—MSCs Adipogenic Single Quote kit containing h-Insulin (recombinant), L-Glutamine, Dexamethasone, Indomethacin, IBMX (3-isobuty-1-methyl-xanthine), Pen/Strep) and adipogenic maintenance media (from Lonza—MSCs Adipogenic Single Quote kit containing h-Insulin (recombinant), L-Glutamine, Pen/Strep). […] Adipogenesis was evaluated by Oil Red O staining. Following aspiration of the media, cells were washed once with PBS, and fixed in PBS with 3.7% formaldehyde for 30 min at room temperature. Following fixation cells were rinsed with distilled water for a few minutes, and incubated with isopropanol containing an Oil Red O working solution (prepared by diluting 30 mL of 0.5% isopropanol/Oil Red O solution with 20 mL of distilled water). After 45 minutes culture well were rinsed twice with distilled water and 1 mL of hematoxylin was added to each well for 1 minute followed by aspiration and washing with distilled water. The wells were viewed using an inverted phase contrast microscope.

In series [3] the test system is mesenchymal stem cells (MSCs). In words: MSC viability, trypan blue exclusion. Type of series: cell-based, human. The note with it: 250 μM, 48 hours incubation. The procedure: Cytocompatibility. The cytocompatibility of prodrugs generated from small modification of known drugs was investigated. […] To test the cyto compatibility of prodrug-based amphiphiles and bolaamphiphiles, and their effect on cell characteristics such as viability, proliferation, adhesion and cell phenotype, a series of experiments was performed with mesenchymal stem cells (MSCs). To gain more insight into the effect of modification, unmodified drug Apn was used as a control. The viability of control cells and cells treated with Apn, Apn-7-COOH and Apn-8-Apn was examined with trypan blue assay. Use of Mesenchymal stem cells is appropriate given that these systems may be used for localized release likely into connective tissues.
Mesenchymal Stem Cell Culture. Primary human mesenchymal stem cells were maintained in expansion media that consisted of 15% Fetal Bovine Serum (selected for its ability to expand MSCs), 1% (v/v) L-Glutamine, 1% (v/v) Penn-Strep, and α-MEM. All experiments were performed using MSCs at passage number 4-6.
Viability, Adhesion and Proliferation Characteristics. The viability of the cells was examined using trypan blue exclusion. […] The media was then aspirated and the cells were detached with 200 μL of cell dissociated solution (similar quantities of floating cells were observed between the groups, typically 5-10 per well). 300 μL of media was added and the total 500 μL of the cell dispersion was collected in an eppendorf tubes. From this 10 μL of cell dispersion was diluted to 1:1 with 4% trypan blue solution and cells were counted in a hemocytometer to determine the number viable (non-blue) and nonviable (blue) cells. A control for this experiment included cells treated with only phosphate buffer saline (PBS) without an amphiphile. Cell adhesion was quantified by measuring the number of adherent cells on tissue culture surfaces in 96 well plates after incubating with amphiphiles for 12 hours. For proliferation studies, 5000 cells were added to each well of a 96 well plate in 200 μL of MSC cell expansion media, and appropriate amphiphiles were then added and incubated at 37° C. and 5% CO2. Proliferation was quantified by manually tabulating the number of cells within the flask at multiple time points (1, 2, 3, 4, 6 and 8 days) with light microscopy at 10×.

Series [4] is described as follows: Gelation studies with Apn-based prodrug gelators in water and organic solvents. Type of series: physicochemical. The following applies: for gelation in water (in words): water / aqueous solutions. Details: key to Gelation ability: G = gel; P = precipitate; S = soluble; I = insoluble. The text has this:
Gelation Studies with Prodrug-Based Gelators. Gelation abilities of Apn based amphiphilic prodrugs have been investigated thoroughly in a wide range of solvents. For detailed gelation results, see Table 1, below). Typically, the required amount of gelator was placed in a glass vial and with an appropriate solvent. […] The resulting solution was slowly cooled to room temperature and gelation was visually observed. […] Despite of prolonged heating Apn-11-CH3 was not soluble in water. […] In addition, Apn-7-COOH is soluble in basic solutions (pH is more than 8).
All gels were opaque in nature and stable for several weeks.
Preparation of Gels. Typically, gelator (0.1-5 mg) and required solvent (0.1-1 mL) were placed into a 2 mL scintillation vial, which was then sealed with a screw cap. The vial was heated with shaking until the solid was completely dissolved.

The target of series [5] is T1, lipase (Lipolase 100L, Type EX) (Thermomyces lanuginosus, UniProt O59952).
T1 construct: purchased Novozymes through Brenntag North America Lipolase 100L, Type EX
T1 sequence (O59952 23-291): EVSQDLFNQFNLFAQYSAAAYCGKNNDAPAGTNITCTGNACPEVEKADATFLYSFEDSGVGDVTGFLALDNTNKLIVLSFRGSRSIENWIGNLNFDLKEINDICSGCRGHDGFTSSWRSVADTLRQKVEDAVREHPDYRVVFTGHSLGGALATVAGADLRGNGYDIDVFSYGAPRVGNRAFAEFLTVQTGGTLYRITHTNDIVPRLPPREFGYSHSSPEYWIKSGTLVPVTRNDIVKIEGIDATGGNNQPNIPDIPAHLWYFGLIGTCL
In words: Enzyme-triggered hydrogel degradation and drug release. The series is classed as in vitro ADME. The following applies: curcumin-encapsulated hydrogel, lipase, 37° C., several days. How it is done:
Encapsulation and release of curcumin was previously studied by the Ultra-Violet absorbance spectroscopy (λmax at 424 nm). Absorbance spectrum of modified Apn-7-COOH was similar to that of Apn (FIG. 6B). In this instance, enzyme-triggered single and multiple drug delivery has been carried out using two sets of hydrogel samples, i.e., hydrogels of Apn-7-COOH and Apn-8-Apn with and without curcumin. In the first set, lipase (Lipolase 100L, Type EX, lipase units 100 KLU/g) was added to the preformed hydrogel of Apn-7-COOH (2 wt %) and kept it at 37° C. which is lower than gel melting temperature. It was anticipated that lipase (esterase) would hydrolyze the ester bond of prodrug-based gelator (Apn-7-COOH) to release acetaminophen and dicarboxylic acid as the hydrogel degrades. As expected, after 48 hours the gel completely degraded and became a clear solution.
To test this further, and examine multiple (two) drugs delivery (FIGS. 6A-6E), curcumin was encapsulated in the hydrogel of Apn-7-COOH (2 wt %) and to that lipase was added and kept it at 37° C. Absorbance spectra were recorded on aliquots which were collected (after the addition of enzyme to the hydrogel) at regular intervals (FIG. 6C). […] The concentration of the enzyme used in these in vitro experiments is higher than physiological concentration of esterases (for example, physiological concentration of cholesterol esterase is 7 U/ml).
Increasing either concentration of enzyme or incubation temperature to 45° C. doubles the drug release rate, which was correlating with previous findings.
To analyze the gel degradation mechanism, another prodrug Apn-5-ether-COOH was synthesized (FIG. 2), where hydrocarbon chain (which is bearing terminal carboxylic acid) was connected to the acetaminophen through an ether bond (C—O—C) to prevent the esterolytic cleavage by lipase.

A short description of series [6]: Gelation ability of polyol amphiphiles in water and organic solvents. Type of series: physicochemical. Details: key: G = stable gel at room temperature; P = precipitate; Sol = soluble. The text has this:
Examples of suitable solvents include water, salt water (such as a NaCl solution), different […] such as TRISZMA buffers, and alkaline and acidic solutions. In addition to water-based solutions, the compounds can gel various aromatic and non-aromatic organic solvents, such as benzene, toluene, hexane, and acetonitrile. All the gels obtained in Table 7 were thermally reversible. Above their gelation temperature, the gels dissolved in solvent, but could be returned to their original gel state upon cooling.

“Also recorded” adds a separate entry of the source.

For `CC(=O)Nc1ccc(O)cc1` [Apn, N-(4-hydroxyphenyl)acetamide, reference compound], the “osteogenic differentiation, alkaline phosphatase (ALP) staining” value in series [1] was “robust capacity; also recorded: positive staining”. Besides, the “adipogenic differentiation, Oil Red O (ORO) staining” value in series [2] is given as “robust capacity; also recorded: positive staining”. In series [3], this molecule displayed a viable cells of 91%. The “solubility in water (in words)” value in series [4] is “water soluble”.
Regarding `CC(=O)Nc1ccc(OCCCCCC(=O)O)cc1` [Apn-5-ether-COOH], the “gelation in water (in words)” value in series [4] is reported as “gelation behavior akin to Apn-7-COOH”. For the same molecule, the “state of hydrogel after incubation with lipase” value in series [5] is on record as “still intact”. Also, the “curcumin release into the solution” value in series [5] (absorption spectroscopy) is recorded as “prevented curcumin release”.
In the case of `CCCCCCCCCCCC(=O)Oc1ccc(NC(C)=O)cc1` [Apn-11-CH3], the Gelation ability result in series [4] (solvent chloroform) was “S”; in series [4] (solvent ethanol), “G”; in series [4] (solvent ethyl acetate) it was “P”; in series [4] (solvent isopropanol), “G”; in series [4] (solvent methanol), “S”; in series [4] (solvent t-butanol), “G”. In series [4] (solvent water), the Gelation ability entry was “I”. In addition, the minimum gelation concentration in series [4] (solvent ethanol) came out at 1.5 wt/v %; in series [4] (solvent isopropanol), 0.8 wt/v %; in series [4] (solvent t-butanol) it was 0.6 wt/v %. The “solubility in water (in words)” value in series [4] is on record as “not soluble”. Also, in series [4], the “gelation in water (in words)” value is “did not gelate”.
Take `CC(=O)Nc1ccc(OC(=O)CCCCCCCCCCCCC(=O)O)cc1` [Apn-13-COOH]: the Gelation ability entry is on record as “S” in series [4] (solvent chloroform); “S” in series [4] (solvent ethanol); “I” in series [4] (solvent ethyl acetate); “S” in series [4] (solvent isopropanol); “S” in series [4] (solvent methanol); “S” in series [4] (solvent t-butanol). In series [4] (solvent water), the Gelation ability result is recorded as “G”. Besides, in series [4] (solvent water), the minimum gelation concentration is 0.6 wt/v %. In addition, the “solubility in water (in words)” value in series [4] was “sparingly soluble”.
With `CC(=O)Nc1ccc(OC(=O)CCCCCCCCCCCCC(=O)Oc2ccc(NC(C)=O)cc2)cc1` [Apn-14-Apn], the Gelation ability result in series [4] (solvent chloroform) was “S”; in series [4] (solvent ethanol) it was “S”; in series [4] (solvent ethyl acetate) it was “I”; in series [4] (solvent isopropanol), “S”; in series [4] (solvent methanol), “S”; in series [4] (solvent t-butanol) it was “S”. The Gelation ability entry in series [4] (solvent water) is on record as “G”. For the same molecule, in series [4] (solvent water), the minimum gelation concentration came to 0.9 wt/v %. Besides, in series [4], the “solubility in water (in words)” value was “insoluble”.
As to `CCCCCCCCCCCCCCCC(=O)NC(CO)(CO)CO` [polyol-16], the Gelation ability entry in series [6] (solvent 1,4-dioxane) is on record as “Sol”; in series [6] (solvent CCl4), “G”; in series [6] (solvent CH3CN), “G”; in series [6] (solvent CHCl3), “Sol”; in series [6] (solvent DMSO) it was “Sol”; in series [6] (solvent NaCl (40 mM)), “G”. Also, the Gelation ability entry is reported as “G” in series [6] (solvent TRIS (50 mM)); “Sol” in series [6] (solvent acetone); “G” in series [6] (solvent acidic (pH < 3)); “G” in series [6] (solvent basic (pH > 12)); “G” in series [6] (solvent benzene); “G” in series [6] (solvent cyclohexane). For the same molecule, the Gelation ability entry in series [6] (solvent toluene) and in series [6] (solvent water) was “G” throughout.
